Assays:
herpes lesions = experiment: Control group: patients with concurrent herpes lesions, one treated iontophoretically, the other by repeated topical application of the same agent; format: in vivo, human; details: for Major Response (count), Control lesion / No Response (count), Control lesion / Some Response (count), Control lesion: repeated unassisted topical application of the same antiviral agent; for Major Response (count), Treated lesion / No Response (count), Treated lesion / Some Response (count), Treated lesion: iontophoretically treated lesion, single 10-15 minute treatment; for Outcome of unassisted topically treated lesions: repeated topical application, compared with resolution in 24 hours; for Outcome of iontophoretically treated lesions: single 10-15 minute iontophoretic treatment, all treated lesions
Procedure: The study included a control situation wherein seven patients were found who had simultaneous concurrent herpes lesions at separate locations on their bodies. In each case, one lesion was treated with iontophoretic application of antiviral agent (Acyclovir® or IUDR) and the other lesion was treated in the standard method employed in the prior art comprising repeated topical application of the same antiviral agent.
(§1) The clinical studies included patient volunteers with full informed consent who suffered from recurrent cold sores. […] The treatment incorporated an electrode saturated with Acyclovir® ointment (ZOVIRAX®) or IUDR (STOXIL®) ophthalmic drops as supplied by the manufacturer. Thus mounted Anodic electrode of the prototype system was used for a 10-15 minute application directly to the lesion with the average current setting of 0.2 ma-0.6 ma which was well tolerated by all patients.
(§2) The lesion was evaluated in 24 hours. In 92% of the iontophoretically treated cases (>70 lesions treated) a major response was noted. A major response was categorized by resolution of pain in <6 hours and lesion crusted and healing within 24 hours. The normal course of cold sores involves an average period of 10-12 days before resolution and healing occurs. The present apparatus and clinical method for treatment of mucocutaneous Herpes Simplex (Type I and Type II) eruptions presented herein have been described and performed with excellent results. This novel user-friendly apparatus in combination with the disclosed clinical treatment method presents a very effective new treatment for Herpes Simplex eruptions.

[1] = test system: mucocutaneous Herpes Simplex (Type I and Type II) eruptions; experiment: Clinical study: iontophoretic application of antiviral agent to herpes lesions (Stage 1 treatment); format: in vivo, human; details: for No response (count, Stage 1 treatment results) / Some response (count, Stage 1 treatment results): iontophoretic 10-15 minute application to lesion, 0.2 ma-0.6 ma, evaluated in 24 hours; for Major response (count, Stage 1 treatment results): iontophoretic 10-15 minute application, major response = resolution of pain in <6 hours and lesion crusted and healing within 24 hours
Description: The inventor has conducted a clinical study using a prototype iontophoretic device in accordance with the present invention for the treatment of cold sores. The clinical response was promising. A second independent, qualified investigator, a board-certified Urologist, conducted a study using the present apparatus and method for treating male genital herpes lesions with encouraging results. Table 1 summarizes data (discussed below) supporting the claim to unexpected clinical benefits treating disease with this novel method. The method and medicament application device when used together for treating these common, embarrassing, and previously not easily-treatable ailments provide surprising advantages.
The embodiment of the device shown in FIG. 1 and described hereinabove is an improvement over the prototype used in the clinical study, which was a larger unit, not user-friendly, which required physically connecting wires to the patient's body which created anxiety, and could not be used without attending personnel. Notwithstanding design, the apparatus used in the clinical study summarized in Table 1 employed electronics similar to the apparatus described herein and was used to optimize the clinical performance of the embodiment 12 of the device described herein.
as §1, §2

Row | Compound | Major Response (count), Control lesion (herpes lesions) | No Response (count), Control lesion (herpes lesions) | Some Response (count), Control lesion (herpes lesions) | Major Response (count), Treated lesion (herpes lesions) | No Response (count), Treated lesion (herpes lesions) | Some Response (count), Treated lesion (herpes lesions) | Outcome of unassisted topically treated lesions (herpes lesions) | Outcome of iontophoretically treated lesions (herpes lesions) | No response (count, Stage 1 treatment results) [1] | Some response (count, Stage 1 treatment results) [1] | Major response (count, Stage 1 treatment results) [1]
1 | Nc1nc2c(ncn2COCCO)c(=O)[nH]1 [ACYCLOVIR ®, 2-amino-1,9-dihydro-9-[(2-hydroxyethoxy)methyl]-6H-purin-6-one] | 0 | 1 | 0 | 1 | 0 | 0 | none of the unassisted topically treated lesions demonstrated a similar response | resolution in 24 hours | 1 | 3 | 42
2 | O=c1[nH]c(=O)n([C@H]2C[C@H](O)[C@@H](CO)O2)cc1I [IUDR, 5-iodo-2 deoxyuridine] | 0 | 5 | 2 | 7 | 0 | 0 | none of the unassisted topically treated lesions demonstrated a similar response | resolution in 24 hours | 1 | 1 | 26

Source: patent publication US6385487B1, “Methods for electrokinetic delivery of medicaments” (Biophoretic Therapeutic Systems, LLC, priority 1996, dated 2002)
